Legend:
[1] = MAD study safety and tolerability; assay type: in vivo, human; conditions: QD 30, 60 and 120 mg/day for 10 days
Experimental: MAD/Part 2: multiple ascending dose, randomized, placebo-controlled, double-blind; up to 5 cohorts, n=9/cohort; subjects in MAD will receive Compound 1 or the placebo. Subjects will undergo a mixed meal tolerance test (MMTT) and an SU challenge and euglycemic clamp procedure. The doses will not exceed the doses in the SAD. Doses will escalate from 30 mg to 120 mg.
To evaluate the safety and tolerability of single and multiple doses of Compound 1.

[2] = test system: glyburide-induced hyperinsulinemic hypoglycemia; assay: Glyburide-induced hyperinsulinemic hypoglycemia model in rats; assay type: in vivo, Sprague Dawley rats; conditions: for Blood glucose levels reached over 5 hours: male rats, 2 h after glyburide, vehicle 94 mg/dL
Experimental: Sulfonylurea drugs, such as glyburide, inhibit KATP channels and can be used in rat preclinical models to mimic the disease state of congenital HI patients with KATP channel mutations.
This model of glyburide-induced hyperinsulinemic hypoglycemia was used to assess the pharmacodynamic effects of Compound 1 after a single administration in male and female adult rats and male neonatal rats.
Glyburide was administered to raise insulin levels and induce hypoglycemia in adult male Sprague Dawley rats.
Two hours following glyburide administration, Compound 1 was given by oral gavage and blood glucose was monitored over 5 hours.

[3] = Exposure in non-fasted male rats; conditions: Sprague Dawley, rat, in vivo, oral, 10 mg/kg
[4] = test system: glucose stimulated insulin secretion; assay: Intravenous glucose tolerance test (IVGTT), SAD; assay type: in vivo, human
Experimental: The results from the IVGTT will help inform selection of the single dose that will be used in SAD 1b and SAD 1c and also to inform the doses used in the MAD.
A summary of the procedure is as follows: Collect pre-IV bolus blood samples for measurement of PG, insulin, and C-peptide. At 1 hour after study drug dosing/Time 60 (±30 minutes) or nominal time, administer an IV bolus of glucose at 300 mg/kg in 20% solution, within 60 seconds (use the most recent body weight measurement for glucose dose). Collect post-IV bolus blood samples for measurement of PG, insulin, and C-peptide.

[5] = test system: incretin-induced insulin secretion; assay: Mixed meal tolerance test (MMTT), MAD; assay type: in vivo, human; conditions: Day 6
Experimental: An MMTT will be conducted during the MAD study to assess the impact of Compound 1 on incretin-induced insulin secretion. This will be conducted at baseline (before study drug dosing) in the MAD and at Day 6 at which Compound 1 is predicted to be at steady state.
The purpose of the MMTT is to evaluate the effect of Compound 1 on plasma insulin in response to multiple fuel sources (protein, fat) and to evaluate the impact on incretin-induced insulin secretion. Subjects are to fast at least 10 hours overnight until ingestion of the mixed meal (which is to occur approximately 4 hours after study drug dosing), and then restrict further food intake until the end of the MMTT.
Start the MMTT (i.e., drink the mixed meal) on Day −1 and Day 6 at 4 hours (±30 minutes) post-study drug dosing (i.e., Time 240 minutes) or at nominal time. The total duration of the MMTT will be approximately 3.5 hours from when the first pre-drink blood sample is collected until the last MMTT blood sample is collected. The subject is to be in the supine position during the MMTT, except while consuming the mixed meal. The procedure will be as follows:
Collect pre-drink fasting blood samples for measurement of PG, insulin, C-peptide, glucagon, GIP, and GLP-1 at the timepoints specified in (SOA).
At 4 hours after study drug dosing/Time 240 minutes (or nominal time), the subject is to drink 400 mL (2×200-mL bottles) Resource® Energy (Nestlé Health Science) drink (mixed meal) within ≤10 minutes.
Collect post-drink blood samples for measurement of PG, insulin, C-peptide, glucagon, and GLP-1 at the timepoints specified in (SOA). The subject is to not eat or drink (except for water) until the last MMTT blood sample is collected.

[6] = molecular target: T1, human somatostatin receptor subtype 2 (Homo sapiens, UniProt P30874); assay: cAMP assay for SST2R; assay type: cell-based; conditions: inhibition of cAMP, CHO-K1 cells expressing human SST2; read-out: SST2 potency (EC50; nM)
T1 construct: expressed in transfected cells
Excerpt: General overview: All five SSTR subtypes are Gi coupled G-protein coupled receptors (GPCRs) that lead to decreases in intracellular cyclic AMP (cAMP) when activated by an agonist. Therefore, measurement of intracellular cAMP levels can be used to assess whether compounds of the invention are agonists of SSTR subtypes (John Kelly, Troy Stevens, W. Joseph Thompson, and Roland Seifert, Current Protocols in Pharmacology, 2005, 2.2.1-2.2). One example of an intracellular cAMP assay is described below.
Four days prior to the assay, 5,000 Chinese hamster ovary cells (CHO-K1, ATCC #CCL-61) stably expressing the human somatostatin receptor subtype 2 are plated in each well of a 96-well tissue culture-treated plate in Ham's F12 growth media (ThermoFisher #10-080-CM) supplemented with 10% donor bovine serum (Gemini Bio-Products #100-506), 100 U/mL penicillin; 100 ug/mL streptomycin; 2 mM L-glutamine (Gemini Bio-Products #400-110) and 0.2 mg/mL hygromycin B (GoldBio #31282-04-9). The cells are cultured at 37° C., 5% CO2 and 95% humidity. […] The time-resolved fluorescent signal is read with a Tecan M1000Pro multiplate reader. The intracellular cAMP concentrations are calculated by regression to a standard curve and are plotted vs. the concentration of the compounds of the invention and the EC50 of the compounds are calculated using standard methods. […]

[7] = single oral dose prior to IV glucose

T1 sequence (P30874 whole entry): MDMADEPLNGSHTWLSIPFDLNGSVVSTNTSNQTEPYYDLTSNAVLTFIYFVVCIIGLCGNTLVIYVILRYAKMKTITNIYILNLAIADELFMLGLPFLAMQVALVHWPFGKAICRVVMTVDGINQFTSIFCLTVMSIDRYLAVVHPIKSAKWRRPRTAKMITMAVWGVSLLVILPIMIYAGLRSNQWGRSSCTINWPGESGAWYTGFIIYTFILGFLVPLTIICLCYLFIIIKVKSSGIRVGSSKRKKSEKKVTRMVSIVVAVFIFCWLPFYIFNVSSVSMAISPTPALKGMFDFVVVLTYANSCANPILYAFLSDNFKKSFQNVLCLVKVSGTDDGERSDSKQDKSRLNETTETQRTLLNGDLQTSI

For C[C@H](NC(=O)c1cnc(C#N)c(-c2cc(F)cc(F)c2)c1N1CC[C@H](N)C1)C(F)(F)F [Compound 1, 4-[(3S)-3-aminopyrrolidin-1-yl]-6-cyano-5-(3,5-difluorophenyl)-N-[(2S)-1,1,1-trifluoropropan-2-yl]pyridine-3-carboxamide], which Safety and tolerability [1] is on record?
Its Safety and tolerability is “generally safe and well tolerated”.

What about the “Blood glucose levels reached over 5 hours” value ([2]; 3 mg/kg oral) of the same molecule?
The value was “up to 111 mg/dL”.

And the “Blood glucose levels reached over 5 hours” value ([2]; 10 mg/kg oral)?
The value was at most 134 mg/dL.

What about the “Blood glucose levels reached over 5 hours” value ([2]; 30 mg/kg oral) of the same molecule?
Its value is at most 203 mg/dL.

What about the “Blood glucose levels compared to vehicle” value ([2]; oral, 3-30 mg/kg) of the same molecule?
The value was “dose-dependently increased blood glucose levels”.

What about the “Minimum effective dose (significant increase in blood glucose AUC over 5 hours)” value ([2]; oral, single dose) of the same molecule?
The value was 10 mg/kg.

What about the AUC [3] of the same molecule?
Its AUC is 590 ng·h/mL.

And the Cmax [3]?
Its Cmax is 45 ng/mL.

What about the “% reduction in insulin AUC” value ([4]; 27 mg dose) of the same molecule?
The value was “about 22%”.

And the “% reduction in insulin AUC” value ([4]; 60 mg dose)?
Its value is “about 40%”.

And the “% reduction in insulin AUC” value ([4]; 120 mg dose)?
The value was “about 47%”.

What about the “Insulin secretion in IVGTT” value [4, 7] of the same molecule?
The value was “dose-dependently suppressed insulin secretion”.

What about the “Plasma glucose in IVGTT” value [4, 7] of the same molecule?
Its value is “rapid and sustained increase in plasma glucose levels”.

What about the “Increase in plasma glucose AUC in MMTT” value ([5]; 30 mg QD) of the same molecule?
The value was about 30%.

What about the “Increase in plasma glucose AUC in MMTT” value ([5]; 60 mg QD) of the same molecule?
The value was about 30%.

What about the “Increase in plasma glucose AUC in MMTT” value ([5]; 120 mg QD) of the same molecule?
The value was about 60%.

What about the “Insulin and C-peptide in MMTT” value ([5]; 30-120 mg QD) of the same molecule?
The value was “more sustained suppression of insulin and C-peptide with increasing dose”.

What about the EC50 [6] of the same molecule?
The EC50 was over 100 nM.

From US20220323427A1, “SOMATOSTATIN RECEPTOR TYPE 5 AGONIST FOR THE TREATMENT OF HYPERINSULINISM” (Crinetics Pharmaceuticals, Inc., priority 2021, published 2022)
